From patent US12161689B2, “Anti-infective formulations” (NEW MEXICO TECH UNIVERSITY RESEARCH PARK CORPORATION, priority 2018, dated 2024)
Where a SMILES comes first, the peptide text is derived from it. Bridges are numbered along the chain shown (N, C = ends). [ ]: non-standard residue; d: D form. The star is where a group is joined. Ileψ(thiazoline)Cys = CC[C@H](C)[C@H](N)C1=N[C@H](C(=O)*)CS1; dOrn = NCCC[C@@H](N)C(=O)O

Tested on: multi-drug resistant Burkholderia cepacia (ATCC 10856)
Experiment: Spot on lawn, MHA plate: killing / diameter of clearance
Format: cell-based
Conditions: 10 μL spot, 24 to 48 hours at 37° C.

With `CC[C@H](C)[C@H](N)C1=N[C@H](C(=O)N[C@@H](CC(C)C)C(=O)N[C@H](CCC(=O)O)C(=O)N[C@H](C(=O)N[C@H]2CCCCNC(=O)[C@H](CC(N)=O)NC(=O)[C@@H](CC(=O)O)NC(=O)[C@H](Cc3cnc[nH]3)NC(=O)[C@@H](Cc3ccccc3)NC(=O)[C@H]([C@@H](C)CC)NC(=O)[C@@H](CCCN)NC2=O)[C@@H](C)CC)CS1` [Bacitracin] ({Ileψ(thiazoline)Cys}-L[dE]IK[dOrn]I[dF]H[dD]N; lactam 4-C) the antibacterial activity (B. cepacia (ATCC 10856)) was “−” and the antibacterial activity (Burkholderia cepacia ATCC 10856) was “−”.
